In ChEMBL document CHEMBL2074557 (Drug Metab Dispos, 1999):

Molecular target: ATP-dependent translocase ABCB1 (Mus musculus, UniProt P21447)
Experiment: TP_TRANSPORTER: increase in plasma concentration in PGP(-/-) mouse
Format: functional, organism-based
Details: in vivo

Sequence of ATP-dependent translocase ABCB1 (P21447 whole entry): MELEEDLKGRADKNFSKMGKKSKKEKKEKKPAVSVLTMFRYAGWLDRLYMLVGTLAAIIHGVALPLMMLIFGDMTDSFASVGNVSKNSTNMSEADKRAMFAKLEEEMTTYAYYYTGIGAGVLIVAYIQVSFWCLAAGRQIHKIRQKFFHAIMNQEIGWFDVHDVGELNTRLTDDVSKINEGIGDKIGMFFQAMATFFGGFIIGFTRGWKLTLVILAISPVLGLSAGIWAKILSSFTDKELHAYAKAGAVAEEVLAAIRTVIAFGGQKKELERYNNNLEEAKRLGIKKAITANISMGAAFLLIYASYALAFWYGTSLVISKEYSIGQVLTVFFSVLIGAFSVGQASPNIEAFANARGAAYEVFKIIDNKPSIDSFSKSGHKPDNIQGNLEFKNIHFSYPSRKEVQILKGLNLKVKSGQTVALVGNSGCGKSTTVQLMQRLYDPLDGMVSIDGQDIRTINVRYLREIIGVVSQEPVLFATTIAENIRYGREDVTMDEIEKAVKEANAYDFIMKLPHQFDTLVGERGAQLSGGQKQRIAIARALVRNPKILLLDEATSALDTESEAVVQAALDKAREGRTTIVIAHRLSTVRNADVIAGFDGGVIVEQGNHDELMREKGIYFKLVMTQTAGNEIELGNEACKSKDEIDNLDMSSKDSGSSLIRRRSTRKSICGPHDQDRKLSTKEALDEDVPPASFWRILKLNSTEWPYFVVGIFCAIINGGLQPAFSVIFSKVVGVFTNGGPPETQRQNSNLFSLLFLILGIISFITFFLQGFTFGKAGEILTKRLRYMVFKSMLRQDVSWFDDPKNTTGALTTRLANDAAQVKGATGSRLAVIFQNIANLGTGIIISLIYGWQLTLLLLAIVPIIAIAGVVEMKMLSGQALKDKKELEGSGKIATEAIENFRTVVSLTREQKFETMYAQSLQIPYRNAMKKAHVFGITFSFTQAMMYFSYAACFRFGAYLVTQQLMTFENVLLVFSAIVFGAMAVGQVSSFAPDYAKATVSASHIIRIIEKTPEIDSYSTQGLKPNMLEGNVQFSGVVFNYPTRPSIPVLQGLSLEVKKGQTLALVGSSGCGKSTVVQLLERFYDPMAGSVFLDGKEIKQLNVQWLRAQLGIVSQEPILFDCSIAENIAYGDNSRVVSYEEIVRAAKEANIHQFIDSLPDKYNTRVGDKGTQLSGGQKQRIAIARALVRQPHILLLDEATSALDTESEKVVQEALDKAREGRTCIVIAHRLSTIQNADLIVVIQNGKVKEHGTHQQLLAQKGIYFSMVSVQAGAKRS

Activity: substrate [+]
Sequence: IVERMECTIN
